Experimental data reported in patent EP3212201B1, “NUCLEOSIDE KINASE INHIBITORS” (BCI Pharma, priority 2014, dated 2016).

Tests used:
Experiment in all cases: FRET-based coupled-enzyme protein kinase inhibition assay
Type in all cases: biochemical
Conditions in all cases: compound at 10 µM, 1% DMSO
[1] = molecular target: T1, AURKA (Aurora A) (Homo sapiens, UniProt O14965)
T1 sequence (O14965 1-403): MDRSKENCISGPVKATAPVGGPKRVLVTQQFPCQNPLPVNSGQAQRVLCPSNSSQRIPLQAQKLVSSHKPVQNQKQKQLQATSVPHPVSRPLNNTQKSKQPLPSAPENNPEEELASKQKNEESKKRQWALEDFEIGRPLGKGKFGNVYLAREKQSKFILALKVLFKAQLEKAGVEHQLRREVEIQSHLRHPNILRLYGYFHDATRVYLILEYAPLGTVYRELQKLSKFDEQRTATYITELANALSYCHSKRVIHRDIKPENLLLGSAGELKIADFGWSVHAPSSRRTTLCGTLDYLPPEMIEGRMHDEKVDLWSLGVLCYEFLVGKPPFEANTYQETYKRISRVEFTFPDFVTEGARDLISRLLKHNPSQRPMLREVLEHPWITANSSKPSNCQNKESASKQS
Method: (§1) A biochemical assay was then performed in order to measure the protein kinase inhibition. It employed a fluorescence-based coupled-enzyme format and was based on the differential sensitivity of phosphorylated and non-phosphorylated peptides to proteolytic cleavage.
(§2) Peptide substrates were labeled with two fluorophores. The two fluorohores used were coumarin (donor) and fluorecein (acceptor), and each of the peptides was bearing one at one end, and one at the other end, which made up fluorescence resonance energy transfer (FRET) pair peptides.
(§3) In a primary reaction, the FRET-peptides were submitted to a phosphorylation reaction, in which one of adenosine triphosphate (ATP)'s phosphate groups was transferred to the peptide in the presence of kinase. When kinase inhibition takes place, the peptide will not be phosphorylated. In a secondary reaction, both the phosphorylated FRET-peptides and the non-phosphorylated FRET-peptides were reacted with a development reagent. It has been observed that non-phosphorylated FRET-peptides were cleaved, whereas the phosphorylted FRET-peptide remained intact.
(§4) Cleavage disrupts FRET between the donor (i.e., coumarin) and acceptor (i.e., fluorescein) fluorophores on the FRET-peptide, whereas uncleaved, phosphorylated FRET-peptides maintain FRET. A ratiometric method, which calculates the Emission Ratio of donor emission to acceptor emission after excitation of the donor fluorophore at 400 nm, is used to quantitate reaction progress, as shown in the equation below. [formula]
(§5) A significant benefit of this ratiometric method for quantitating reaction progress is the elimination of well-to-well variations in FRET-peptide concentration and signal intensities. As a result, the assay yields very high Z'factor values (>0.7) at a low percent phosphorylation. Both cleaved and uncleaved FRET-peptides contribute to the fluorescence signals and therefore to the Emission Ratio. The extent of phosphorylation of the FRET-peptide can be calculated from the Emission Ratio. The Emission Ratio will remain low if the FRET-peptide is phosphorylated (i.e., no kinase inhibition) and will be high if the FRET-peptide is non-phosphorylated (i.e., kinase inhibition).
(§6) The Test Compounds were screened in 1% DMSO. For 10 point titrations, 3-fold serial dilutions were prepared from the starting concentration.
(§7) All Peptide/Kinase Mixtures were diluted to a 2X working concentration in the appropriate Kinase Buffer (50 mM HEPES pH 7.5, 0.01% BRIJ-35, 10 mM MgCl2, 1 mM […]).
(§8) All ATP Solutions were diluted to a 4X working concentration in Kinase Buffer. ATP Km apparent was previously determined using another assay.
(§9) 2.5 µL - 4X Test Compound or 100 nL 100X plus 2.4 µL kinase buffer were mixed together with 2. 5 µL - 2X Peptide/Kinase Mixture and 3. 2.5 µL - 4X ATP Solution.
(§10) The solution was plate-shaked for 30 seconds, then incubated 60 minutes at room temperature for kinase reaction. 5 µL of Development Reagent Solution were then added, followed by a 30-second plate shake and a 60-minute Development Reaction incubation at room temperature. The results were read on a fluorescence plate reader and the data was analyzed.
(§11) The compounds that show the highest Emission Ratio are the ones that also show the highest protein kinase inhibition properties.

[2] = molecular target: CSNK1G2 (CK1 gamma 2) (Homo sapiens, UniProt P78368)
Method: as §1, §2, §3, §4, §5, §6, §7, §8, §9, §10, §11

[3] = molecular target: ERBB2 (HER2) (Homo sapiens, UniProt P04626)
Method: as §1, §2, §3, §4, §5, §6, §7, §8, §9, §10, §11

[4] = molecular target: T2, FLT3 (Homo sapiens, UniProt P36888)
T2 sequence (P36888 27-993): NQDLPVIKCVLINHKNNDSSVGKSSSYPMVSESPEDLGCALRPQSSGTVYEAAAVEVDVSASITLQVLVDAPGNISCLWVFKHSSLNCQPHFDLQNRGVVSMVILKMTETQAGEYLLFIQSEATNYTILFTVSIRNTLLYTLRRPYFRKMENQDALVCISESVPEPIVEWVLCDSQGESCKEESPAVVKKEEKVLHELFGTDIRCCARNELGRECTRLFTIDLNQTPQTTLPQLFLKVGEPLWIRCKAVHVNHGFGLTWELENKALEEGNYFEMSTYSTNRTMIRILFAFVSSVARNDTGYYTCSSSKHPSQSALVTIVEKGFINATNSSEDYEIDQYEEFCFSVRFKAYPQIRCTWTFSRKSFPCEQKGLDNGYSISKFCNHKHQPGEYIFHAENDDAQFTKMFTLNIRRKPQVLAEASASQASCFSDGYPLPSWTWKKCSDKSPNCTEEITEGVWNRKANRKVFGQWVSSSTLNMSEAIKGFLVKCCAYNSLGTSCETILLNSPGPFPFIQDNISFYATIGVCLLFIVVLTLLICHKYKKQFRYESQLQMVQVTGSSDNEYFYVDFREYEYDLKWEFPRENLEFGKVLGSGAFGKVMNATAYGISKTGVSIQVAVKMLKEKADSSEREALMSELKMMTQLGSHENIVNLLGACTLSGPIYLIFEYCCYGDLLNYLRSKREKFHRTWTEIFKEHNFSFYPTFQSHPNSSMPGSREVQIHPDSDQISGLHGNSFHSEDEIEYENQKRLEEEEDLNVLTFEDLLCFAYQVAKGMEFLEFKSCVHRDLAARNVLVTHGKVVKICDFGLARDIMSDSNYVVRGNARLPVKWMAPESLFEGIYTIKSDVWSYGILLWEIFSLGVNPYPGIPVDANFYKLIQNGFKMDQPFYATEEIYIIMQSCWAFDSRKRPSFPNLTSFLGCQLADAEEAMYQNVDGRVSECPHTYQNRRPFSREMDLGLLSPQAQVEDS
Method: as §1, §2, §3, §4, §5, §6, §7, §8, §9, §10, §11

[5] = molecular target: INSR (Homo sapiens, UniProt P06213)
Method: as §1, §2, §3, §4, §5, §6, §7, §8, §9, §10, §11

[6] = molecular target: MAPK3 (ERK1) (Homo sapiens, UniProt P27361)
Method: as §1, §2, §3, §4, §5, §6, §7, §8, §9, §10, §11

[7] = molecular target: RPS6KA3 (RSK2) (Homo sapiens, UniProt P51812)
Method: as §1, §2, §3, §4, §5, §6, §7, §8, §9, §10, §11

[8] = molecular target: SYK (Homo sapiens, UniProt P43405)
Method: as §1, §2, §3, §4, §5, §6, §7, §8, §9, §10, §11

Sequence of INSR (P06213 28-1382, species assumed): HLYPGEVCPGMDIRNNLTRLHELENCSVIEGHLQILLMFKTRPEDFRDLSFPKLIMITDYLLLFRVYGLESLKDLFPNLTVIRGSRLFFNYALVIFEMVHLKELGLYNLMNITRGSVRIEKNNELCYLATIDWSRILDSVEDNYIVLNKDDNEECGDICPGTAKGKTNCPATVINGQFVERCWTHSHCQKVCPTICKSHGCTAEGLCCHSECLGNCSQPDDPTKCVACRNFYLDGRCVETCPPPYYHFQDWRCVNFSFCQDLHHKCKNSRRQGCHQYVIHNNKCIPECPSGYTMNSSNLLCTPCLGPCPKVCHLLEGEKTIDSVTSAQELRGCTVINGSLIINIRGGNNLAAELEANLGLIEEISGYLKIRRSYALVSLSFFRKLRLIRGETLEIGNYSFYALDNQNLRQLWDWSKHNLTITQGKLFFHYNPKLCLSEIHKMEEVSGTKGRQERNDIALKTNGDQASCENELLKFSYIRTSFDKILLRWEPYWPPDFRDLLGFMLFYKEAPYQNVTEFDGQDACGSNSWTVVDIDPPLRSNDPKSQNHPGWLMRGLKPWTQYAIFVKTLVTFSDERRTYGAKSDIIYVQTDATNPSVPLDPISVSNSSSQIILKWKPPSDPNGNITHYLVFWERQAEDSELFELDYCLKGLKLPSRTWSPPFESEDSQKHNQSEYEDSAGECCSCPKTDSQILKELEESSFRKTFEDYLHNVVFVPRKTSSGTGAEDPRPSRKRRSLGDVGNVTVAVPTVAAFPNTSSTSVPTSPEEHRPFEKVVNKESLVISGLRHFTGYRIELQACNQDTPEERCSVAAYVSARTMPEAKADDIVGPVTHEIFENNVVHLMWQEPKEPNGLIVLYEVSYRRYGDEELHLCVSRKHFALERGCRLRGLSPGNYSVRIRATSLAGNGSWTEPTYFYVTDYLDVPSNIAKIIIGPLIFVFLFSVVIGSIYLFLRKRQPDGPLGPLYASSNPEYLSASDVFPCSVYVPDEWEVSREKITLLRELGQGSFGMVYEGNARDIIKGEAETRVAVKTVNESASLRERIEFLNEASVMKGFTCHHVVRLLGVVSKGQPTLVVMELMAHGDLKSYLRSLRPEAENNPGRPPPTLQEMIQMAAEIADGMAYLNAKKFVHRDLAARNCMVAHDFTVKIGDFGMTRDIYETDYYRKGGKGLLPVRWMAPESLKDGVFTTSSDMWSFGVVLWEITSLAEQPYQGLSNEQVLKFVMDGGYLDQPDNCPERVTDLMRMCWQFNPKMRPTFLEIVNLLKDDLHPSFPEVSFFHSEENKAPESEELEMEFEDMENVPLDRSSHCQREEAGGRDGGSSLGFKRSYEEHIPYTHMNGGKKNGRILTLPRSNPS
Sequence of CSNK1G2 (CK1 gamma 2) (P78368 whole entry, species assumed): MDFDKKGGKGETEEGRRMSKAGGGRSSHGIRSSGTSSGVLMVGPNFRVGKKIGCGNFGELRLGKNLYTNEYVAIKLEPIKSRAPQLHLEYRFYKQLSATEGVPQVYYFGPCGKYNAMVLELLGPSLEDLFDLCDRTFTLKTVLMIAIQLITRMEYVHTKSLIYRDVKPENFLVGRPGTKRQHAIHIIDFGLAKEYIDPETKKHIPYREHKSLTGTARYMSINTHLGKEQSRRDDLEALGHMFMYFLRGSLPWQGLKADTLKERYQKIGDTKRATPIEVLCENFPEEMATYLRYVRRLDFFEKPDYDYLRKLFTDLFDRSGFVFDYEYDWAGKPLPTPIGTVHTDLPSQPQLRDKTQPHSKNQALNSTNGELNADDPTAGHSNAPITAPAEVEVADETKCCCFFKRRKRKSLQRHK
Sequence of RPS6KA3 (RSK2) (P51812 whole entry, species assumed): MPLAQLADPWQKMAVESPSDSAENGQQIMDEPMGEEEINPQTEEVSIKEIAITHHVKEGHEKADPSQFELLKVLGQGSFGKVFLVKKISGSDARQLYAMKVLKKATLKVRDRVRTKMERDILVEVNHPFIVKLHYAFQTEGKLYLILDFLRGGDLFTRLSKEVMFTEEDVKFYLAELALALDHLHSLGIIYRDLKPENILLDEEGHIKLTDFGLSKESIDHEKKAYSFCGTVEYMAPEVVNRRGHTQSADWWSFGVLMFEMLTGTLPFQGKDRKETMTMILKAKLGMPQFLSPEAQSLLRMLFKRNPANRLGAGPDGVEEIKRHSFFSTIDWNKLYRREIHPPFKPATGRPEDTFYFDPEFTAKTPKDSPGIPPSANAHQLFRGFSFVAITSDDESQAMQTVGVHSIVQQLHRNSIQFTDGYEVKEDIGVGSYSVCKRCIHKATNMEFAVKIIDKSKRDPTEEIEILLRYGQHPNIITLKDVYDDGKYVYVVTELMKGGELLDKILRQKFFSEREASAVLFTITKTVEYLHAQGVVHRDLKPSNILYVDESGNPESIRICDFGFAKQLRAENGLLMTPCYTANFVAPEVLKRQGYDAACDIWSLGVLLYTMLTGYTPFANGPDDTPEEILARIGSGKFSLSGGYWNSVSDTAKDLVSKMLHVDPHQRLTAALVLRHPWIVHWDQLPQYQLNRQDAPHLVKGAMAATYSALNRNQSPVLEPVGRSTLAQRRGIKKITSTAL
Sequence of MAPK3 (ERK1) (P27361 whole entry, species assumed): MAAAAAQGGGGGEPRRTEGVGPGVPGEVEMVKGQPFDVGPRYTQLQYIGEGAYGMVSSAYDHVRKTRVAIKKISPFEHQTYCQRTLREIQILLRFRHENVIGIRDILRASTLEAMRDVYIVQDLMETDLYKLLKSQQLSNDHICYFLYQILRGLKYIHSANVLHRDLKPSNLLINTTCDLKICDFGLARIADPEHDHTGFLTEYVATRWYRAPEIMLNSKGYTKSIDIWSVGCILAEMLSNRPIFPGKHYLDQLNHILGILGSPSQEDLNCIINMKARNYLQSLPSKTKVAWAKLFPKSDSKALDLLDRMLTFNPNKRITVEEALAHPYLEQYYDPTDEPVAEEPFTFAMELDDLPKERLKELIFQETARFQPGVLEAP
Sequence of ERBB2 (HER2) (P04626 23-1255, species assumed): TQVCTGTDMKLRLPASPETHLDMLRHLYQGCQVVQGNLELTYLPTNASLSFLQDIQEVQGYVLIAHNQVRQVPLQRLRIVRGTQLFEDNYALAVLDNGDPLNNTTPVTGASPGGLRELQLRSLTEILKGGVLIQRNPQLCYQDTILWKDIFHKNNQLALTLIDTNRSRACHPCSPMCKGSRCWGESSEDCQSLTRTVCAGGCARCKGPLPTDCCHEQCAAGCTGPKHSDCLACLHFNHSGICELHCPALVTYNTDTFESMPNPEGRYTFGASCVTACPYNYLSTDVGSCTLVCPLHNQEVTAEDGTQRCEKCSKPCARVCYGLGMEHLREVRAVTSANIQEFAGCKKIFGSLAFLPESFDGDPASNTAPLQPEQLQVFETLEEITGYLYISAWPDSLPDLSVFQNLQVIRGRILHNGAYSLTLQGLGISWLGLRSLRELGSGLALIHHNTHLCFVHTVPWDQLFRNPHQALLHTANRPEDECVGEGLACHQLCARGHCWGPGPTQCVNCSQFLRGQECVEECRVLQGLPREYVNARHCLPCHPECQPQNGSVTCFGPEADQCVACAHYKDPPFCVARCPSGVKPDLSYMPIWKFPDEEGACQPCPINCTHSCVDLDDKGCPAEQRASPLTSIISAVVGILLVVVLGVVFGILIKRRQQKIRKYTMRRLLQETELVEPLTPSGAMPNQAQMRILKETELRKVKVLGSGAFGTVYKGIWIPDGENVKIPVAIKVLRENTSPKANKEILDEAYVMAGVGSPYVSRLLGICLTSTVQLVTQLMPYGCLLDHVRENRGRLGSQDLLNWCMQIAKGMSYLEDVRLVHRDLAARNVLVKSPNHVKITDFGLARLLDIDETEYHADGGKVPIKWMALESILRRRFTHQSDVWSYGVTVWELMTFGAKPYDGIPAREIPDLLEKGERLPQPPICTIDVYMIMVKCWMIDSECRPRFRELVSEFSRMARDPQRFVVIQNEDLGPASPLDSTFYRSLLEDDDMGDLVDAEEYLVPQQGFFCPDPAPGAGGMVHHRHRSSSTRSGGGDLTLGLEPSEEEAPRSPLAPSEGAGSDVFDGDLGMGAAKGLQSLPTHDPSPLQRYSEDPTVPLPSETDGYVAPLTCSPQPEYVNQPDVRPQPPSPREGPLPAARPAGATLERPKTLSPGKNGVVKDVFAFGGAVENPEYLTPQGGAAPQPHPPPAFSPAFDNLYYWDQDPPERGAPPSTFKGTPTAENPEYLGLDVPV

inhibition at 10 µM [1] [%] | inhibition at 10 µM [2] [%] | inhibition at 10 µM [3] [%] | inhibition at 10 µM [4] [%] | inhibition at 10 µM [5] [%] | inhibition at 10 µM [6] [%] | inhibition at 10 µM [7] [%] | inhibition at 10 µM [8] [%] | SMILES
9 | -2 | 5 | 6 | 0 | 5 | 8 | 3 | Nc1ncnc2c1ncn2[C@@H]1O[C@H](COC(=O)NCCCc2nc3ccccc3[nH]2)[C@@H](O)[C@H]1O [Compound C1]
8 | 7 | 2 | 19 | 5 | 6 | 9 | 4 | C[C@@H](NC(=O)OC[C@H]1O[C@@H](n2cnc3c(N)ncnc32)[C@H](O)[C@@H]1O)c1ccc(Cl)cc1 [Compound C4]
-7 | 13 | -7 | 12 | 2 | 12 | 19 | 7 | Nc1ncnc2c1ncn2[C@@H]1O[C@H](COC(=O)NC[C@H](O)CO)[C@@H](O)[C@H]1O [Compound C8]
-5 | -5 | -19 | 8 | 4 | 5 | 1 | -4 | Nc1ncnc2c1ncn2[C@@H]1O[C@H](COC(=O)N2CCC[C@H]2CO)[C@@H](O)[C@H]1O [Compound C9]
-1 | 7 | -5 | 13 | 3 | 5 | 8 | 1 | Nc1ncnc2c1ncn2[C@@H]1O[C@H](COC(=O)N[C@@H]2CCN(Cc3ccccc3)C2)[C@@H](O)[C@H]1O [Compound C10]
-1 | 11 | 3 | 12 | -3 | 5 | 3 | 0 | Nc1ncnc2c1ncn2[C@@H]1O[C@H](COC(=O)N2CCN(Cc3ccccc3)CC2CO)[C@@H](O)[C@H]1O (stereo partly shown) [Compound C13]
6 | 6 | -7 | 23 | 0 | 4 | 1 | -1 | CC(C)N1CCC(NC(=O)OC[C@H]2O[C@@H](n3cnc4c(N)ncnc43)[C@H](O)[C@@H]2O)CC1 [Compound C19]
5 | 2 | -9 | 9 | -5 | 1 | 2 | -8 | Nc1ncnc2c1ncn2[C@@H]1O[C@H](COC(=O)NCCN2CCCC2=O)[C@@H](O)[C@H]1O [Compound C22]
1 | 0 | 8 | 18 | 2 | 8 | 0 | -4 | Nc1ncnc2c1ncn2[C@@H]1O[C@H](COC(=O)N2CCN(CCc3ccccc3)CC2)[C@@H](O)[C@H]1O [Compound C26]
3 | -4 | -14 | 10 | 0 | 2 | 6 | 0 | CN1CCN(CCNC(=O)OC[C@H]2O[C@@H](n3cnc4c(N)ncnc43)[C@H](O)[C@@H]2O)CC1 [Compound C46]
4 | 10 | 11 | 20 | -5 | -2 | 6 | 1 | Nc1ncnc2c1ncn2[C@@H]1O[C@H](COC(=O)N2CCC(Cc3ccc(F)cc3)C2)[C@@H](O)[C@H]1O (stereo partly shown) [Compound C66]
-1 | 0 | 0 | 7 | -2 | 4 | 2 | -1 | N#CCCN1CCN(C(=O)OC[C@H]2O[C@@H](n3cnc4c(N)ncnc43)[C@H](O)[C@@H]2O)CC1 [Compound C70]
-11 | 0 | -13 | 12 | 3 | 2 | 7 | -1 | CN(C)CCNC(=O)OC[C@H]1O[C@@H](n2cnc3c(N)ncnc32)[C@H](O)[C@@H]1O [Compound C85]
-7 | 0 | -7 | 10 | 0 | 3 | 0 | -5 | Nc1ncnc2c1ncn2[C@@H]1O[C@H](COC(=O)N2CCN(C(=O)N3CCOCC3)CC2)[C@@H](O)[C@H]1O [Compound C89]
